Laboratory results published in patent publication US20130131075A1, “NEW COMPOUNDS” (Boehringer Ingelheim International GmbH, priority 2009, published 2013).

Target: T1, cynomolgus BK1-receptor (Macaca fascicularis, UniProt Q3BCU0)
T1 construct: expressed in transfected cells; host or cells: CHO cells (homogenate)
T1 sequence (Q3BCU0 1-352): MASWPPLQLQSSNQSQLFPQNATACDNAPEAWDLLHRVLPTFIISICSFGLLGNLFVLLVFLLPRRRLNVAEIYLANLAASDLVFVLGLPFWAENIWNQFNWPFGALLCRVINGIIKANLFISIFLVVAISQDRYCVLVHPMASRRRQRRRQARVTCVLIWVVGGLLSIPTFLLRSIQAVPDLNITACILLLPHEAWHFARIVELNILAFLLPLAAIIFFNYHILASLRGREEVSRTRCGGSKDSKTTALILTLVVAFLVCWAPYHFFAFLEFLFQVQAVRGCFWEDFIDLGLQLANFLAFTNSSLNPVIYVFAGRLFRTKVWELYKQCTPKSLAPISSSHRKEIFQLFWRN
Assay: cynoBK1-receptor binding assay
Details: CHO cells expressing cynomolgus BK1-receptor, radioligand kallidine (DesArg10,Leu9); for inhibition at 10 µM: at 10 μgmol/L
Procedure: Description of the Method of Binding the cynoBK1-Receptor
CHO cells that express the cynomolgus BK1-receptor are cultivated in “HAM'S F-12 Medium”. The medium is removed from confluent cultures, the cells are washed with PBS buffer, scraped off or detached using Versene and isolated by centrifuging. Then the cells are homogenised in suspension, the homogenate is centrifuged and resuspended. After the protein content has been determined 200 μl of the homogenate (50 to 250 μg protein/assay) are incubated for 60-180 minutes at ambient temperature with 0.5 to 5.0 nM kallidine (DesArg10,Leu9), [3,4-Prolyl-3,43H(N)] and increasing concentrations of the test substance in a total volume of 250 μl. The incubation is stopped by rapid filtration through GF/B glass fibre filters that have been pre-treated with polyethyleneimine (0.3%). The radioactivity bound to the protein is measured with a TopCount NXT. The radioactivity bound in the presence of 1.0 μM kallidine (DesArg10) is defined as non-specific binding. The concentration binding curve may be analysed using computer-aided non-linear curve fitting to determine the corresponding Ki value for the test substance.
Test results of the cynoBK1-receptor binding assay: […]

SMILES: N#Cc1ccc(Nc2ccc(CNC(=O)C3(NC(=O)c4cncnc4)CC3)nc2)c(C(F)(F)F)c1 [(197)]
- Ki: > 500 nM
- inhibition at 10 µM: 81%

SMILES: CNc1ncc(C(=O)N[C@@]2(C(=O)NCc3ccc(Nc4ccc(F)cc4C(F)(F)F)cn3)CCOC2)cn1 [(304)]
- Ki: 135 nM

SMILES: O=C(N[C@@]1(C(=O)NCc2ccc(Nc3ccc(Br)cc3C(F)(F)F)cn2)CCOC1)c1cncnc1 [(223)]
- Ki: 75 nM

SMILES: CCCCC(=O)NC1(C(=O)NCc2ccc(Nc3ccccc3C(F)(F)F)cc2)CC1 [(16)]
- inhibition at 10 µM: 91%

SMILES: O=C(NC1(C(=O)NCc2ccc(Nc3ccc(F)cc3)cc2)CC1)c1cncnc1 [(37)]
- Ki: > 500 nM
- inhibition at 10 µM: 77%

SMILES: N#Cc1c(F)cccc1Nc1ccc(CNC(=O)C2(NC(=O)c3cncnc3)CC2)cc1 [(115)]
- Ki: > 500 nM
- inhibition at 10 µM: 99%

SMILES: COc1ccc(C(=O)N[C@@]2(C(=O)NCc3ccc(Nc4ccccc4C(F)(F)F)cc3)CCOC2)o1 [(68)]
- inhibition at 10 µM: 78%

SMILES: COCC(=O)NC1(C(=O)NCc2ccc(Nc3ccccc3C(F)(F)F)cc2)CC1 [(14)]
- inhibition at 10 µM: 84%

SMILES: Cn1ccc(C(=O)NC2(C(=O)NCc3ccc(Nc4ccc(Cl)cc4C(F)(F)F)cn3)CC2)cc1=O [(148)]
- inhibition at 10 µM: 96%

SMILES: CNc1cncc(C(=O)NC2(C(=O)NCc3ncc(Nc4c(F)cccc4C(F)(F)F)cc3F)CC2)c1 [(272)]
- Ki: 35 nM

SMILES: CNc1ncc(C(=O)NC2(C(=O)NCc3ncc(Nc4c(F)cccc4C(F)(F)F)cc3F)CC2)cn1 [(133)]
- inhibition at 10 µM: 101%

SMILES: Cc1cncc(C(=O)N[C@@]2(C(=O)NCc3ccc(Nc4ccc(F)cc4C(F)(F)F)cc3)CCOC2)c1 [(308)]
- Ki: 427 nM

SMILES: CNc1ccc(C(=O)NC2(C(=O)NCc3ccc(Nc4ccc(Cl)cc4C(F)(F)F)cn3)CC2)cn1 [(347)]
- Ki: 12 nM

SMILES: O=C(NC1(C(=O)NCc2ccc(Nc3ccc(Br)cc3Cl)cn2)CC1)c1cncnc1 [(126)]
- Ki: 46 nM
- inhibition at 10 µM: 103%

SMILES: CNc1cncc(C(=O)NC2(C(=O)NCc3ccc(Nc4ccc(Cl)cc4C(F)(F)F)cn3)CC2)c1 [(280)]
- Ki: 25 nM

SMILES: COc1ncc(C(=O)NC2(C(=O)NCc3ccc(Nc4ccc(F)cc4C(F)(F)F)cn3)CC2)cn1 [(233)]
- Ki: 10 nM

SMILES: O=C(NC1(C(=O)NCc2ccc(Nc3ccc(Cl)cc3C(F)(F)F)cn2)CC1)c1cncc(C(F)(F)F)c1 [(354)]
- Ki: 27 nM

SMILES: O=C(NC1(C(=O)NCc2ccc(Nc3ccc(Cl)cc3C(F)(F)F)cn2)CC1)c1ccnnc1 [(209)]
- Ki: 73 nM

SMILES: N#Cc1ccccc1Nc1ccc(CNC(=O)C2(NC(=O)c3cncnc3)CC2)cc1 [(35)]
- Ki: 70 nM
- inhibition at 10 µM: 111%

SMILES: Nc1cncc(C(=O)N[C@@]2(C(=O)NCc3ncc(Nc4ccc(Cl)cc4C(F)(F)F)cc3Cl)CCOC2)c1 [(285)]
- Ki: 27 nM

SMILES: O=C(N[C@@]1(C(=O)NCc2ncc(Nc3ccc(Cl)cc3C(F)(F)F)cc2F)CCOC1)c1cncnc1 [(242)]
- Ki: 15 nM

SMILES: O=C(NC1(C(=O)NCc2ccc(Nc3ccc(Cl)cc3C(F)(F)F)cn2)CC1)c1ccns1 [(357)]
- Ki: 44 nM

SMILES: O=C(N[C@@]1(C(=O)NCc2ccc(Nc3ccc(F)cc3C(F)(F)F)cn2)CCOC1)c1cnc2[nH]cnc2c1 [(159)]
- Ki: 97 nM
- inhibition at 10 µM: 91%

SMILES: O=C(NC1(C(=O)NCc2ccc(Nc3ccccc3C(F)(F)F)cc2)CC1)c1cccnc1 [(11)]
- inhibition at 10 µM: 99%

SMILES: O=C(NC1(C(=O)NCc2ccc(Nc3ccc(Cl)cc3C(F)(F)F)cn2)CC1)c1cc(O)nc(O)n1 [(208)]
- Ki: 6.8 nM

SMILES: Nc1cncc(C(=O)N[C@@]2(C(=O)NCc3ccc(Nc4ccc(Cl)cc4C(F)(F)F)cn3)CCOC2)c1 [(226)]
- Ki: 157 nM

SMILES: Nc1cc(C(=O)N[C@@]2(C(=O)NCc3ccc(Nc4ccccc4C(F)(F)F)cc3)CCOC2)ccn1 [(63)]
- Ki: 118 nM
- inhibition at 10 µM: 108%

SMILES: Cc1ncc(C(=O)N[C@@]2(C(=O)NCc3ncc(Nc4ccc(F)cc4C(F)(F)F)cc3F)CCOC2)cn1 [(267)]
- Ki: 5.5 nM

SMILES: O=C(N[C@@]1(C(=O)NCc2ccc(Nc3ccccc3C(F)(F)F)cc2)CCOC1)c1ccco1 [(94)]
- inhibition at 10 µM: 57%

SMILES: COc1ncc(C(=O)N[C@@]2(C(=O)NCc3ncc(Nc4ccc(F)cc4C(F)(F)F)cc3F)CCOC2)cn1 [(238)]
- Ki: 6.6 nM

SMILES: Cc1ccc(C(=O)NC2(C(=O)NCc3ccc(Nc4ccc(Br)cc4C(F)(F)F)cn3)CC2)cn1 [(315)]
- Ki: 40 nM

SMILES: O=C(NC1(C(=O)NCc2ccc(Nc3ccccc3C(F)(F)F)cc2)CC1)C(F)(F)F [(23)]
- inhibition at 10 µM: 110%

SMILES: O=C1CCC(C(=O)N[C@@]2(C(=O)NCc3ccc(Nc4ccccc4C(F)(F)F)cc3)CCOC2)N1 (some centres unmarked) [(56)]
- inhibition at 10 µM: 99%

SMILES: CN(C)CCC(=O)NC1(C(=O)NCc2ccc(Nc3ccccc3C(F)(F)F)cc2)CC1 [(8)]
- inhibition at 10 µM: 75%

SMILES: Cc1ccc(C(=O)NC2(C(=O)NCc3ccc(Nc4ccc(F)cc4C(F)(F)F)cn3)CC2)cn1 [(341)]
- Ki: 69 nM

SMILES: CCCNc1ccc(C(=O)NC2(C(=O)NCc3ccc(Nc4ccc(Br)cc4C(F)(F)F)cn3)CC2)cn1 [(335)]
- Ki: 28 nM

SMILES: Cc1cncc(C(=O)NC2(C(=O)NCc3ncc(Nc4c(F)cccc4C(F)(F)F)cc3F)CC2)c1 [(131)]
- Ki: 33 nM
- inhibition at 10 µM: 105%

SMILES: O=C(NC1(C(=O)NCc2ccc(Nc3ccc(Cl)cc3C(F)(F)F)cn2)CC1)c1cncc(F)c1 [(351)]
- Ki: 24 nM

SMILES: CNc1ncc(C(=O)N[C@@]2(C(=O)NCc3ncc(Nc4ccc(Cl)cc4C(F)(F)F)cc3Cl)CCOC2)cn1 [(281)]
- Ki: 21 nM

SMILES: Cc1cc(Nc2ccc(F)cc2C(F)(F)F)cnc1CNC(=O)[C@]1(NC(=O)c2cncc(N)c2)CCOC1 [(342)]
- Ki: 50 nM

SMILES: Cn1ccnc1C(=O)NC1(C(=O)NCc2ccc(Nc3ccccc3C(F)(F)F)cc2)CC1 [(18)]
- inhibition at 10 µM: 67%

SMILES: COc1cncc(C(=O)N[C@@]2(C(=O)NCc3ccc(Nc4ccc(F)cc4C(F)(F)F)cc3)CCOC2)c1 [(381)]
- Ki: 93 nM

SMILES: O=C(NC1(C(=O)NCc2ccc(Nc3ccc(F)cc3C(F)(F)F)cc2)CC1)c1cncs1 [(29)]
- Ki: 6.2 nM
- inhibition at 10 µM: 113%

SMILES: CC(C#N)C(=O)NC1(C(=O)NCc2ccc(Nc3ccc(F)cc3C(F)(F)F)cn2)CC1 (centres unmarked) [(170)]
- Ki: 35 nM
- inhibition at 10 µM: 104%

SMILES: CCc1ncc(C(=O)NC2(C(=O)NCc3ccc(Nc4ccc(Cl)cc4C(F)(F)F)cn3)CC2)cn1 [(371)]
- Ki: 6.1 nM

SMILES: O=C(NC1(C(=O)NCc2ccc(Nc3ccc(F)cc3C(F)(F)F)cn2)CC1)c1cnc2[nH]cnc2c1 [(143)]
- Ki: 12 nM
- inhibition at 10 µM: 106%

SMILES: Nc1ccc(C(=O)N[C@@]2(C(=O)NCc3ccc(Nc4ccc(Cl)cc4C(F)(F)F)cc3)CCOC2)cn1 [(318)]
- Ki: 316 nM

SMILES: O=C(NC1(C(=O)NCc2ccc(Nc3ccccc3C(F)(F)F)cc2)CC1)c1cnc(O)nc1O [(9)]
- inhibition at 10 µM: 78%

SMILES: O=C(NC1(C(=O)NCc2ccc(Nc3ccc(Br)cc3C(F)(F)F)cn2)CC1)c1cncs1 [(172)]
- Ki: 9.8 nM
- inhibition at 10 µM: 100%

SMILES: O=C(NC1(C(=O)NCc2ncc(Nc3ccc(Cl)cc3C(F)(F)F)cc2F)CC1)c1cncnc1 [(165)]
- inhibition at 10 µM: 101%

SMILES: Cc1ncncc1C(=O)N[C@@]1(C(=O)NCc2ccc(Nc3ccccc3C(F)(F)F)cc2)CCOC1 [(77)]
- inhibition at 10 µM: 96%

SMILES: O=C(N[C@@]1(C(=O)NCc2ccc(Nc3ccccc3C(F)(F)F)cc2)CCOC1)c1cccnn1 [(74)]
- inhibition at 10 µM: 56%

SMILES: O=C(N[C@@]1(C(=O)NCc2ccc(Nc3cc(F)ccc3C(F)(F)F)cn2)CCOC1)c1cncnc1 [(48)]
- inhibition at 10 µM: 71%

SMILES: Cc1ccc(Nc2ccc(CNC(=O)C3(NC(=O)c4cncnc4)CC3)nc2)c(C(F)(F)F)c1 [(51)]
- Ki: 38 nM
- inhibition at 10 µM: 112%

SMILES: COc1ccc(N(C)c2ccc(CNC(=O)C3(NC(=O)c4cncnc4)CC3)cc2)cc1 [(112)]
- inhibition at 10 µM: 45%

SMILES: O=C(N[C@@]1(C(=O)NCc2ncc(Nc3ccc(Cl)cc3C(F)(F)F)cc2Cl)CCOC1)c1cncnc1 [(278)]
- Ki: 16 nM

SMILES: Cc1ncc(C(=O)N[C@@]2(C(=O)NCc3ncc(Nc4ccccc4C(F)(F)F)cc3Cl)CCOC2)cn1 [(292)]
- Ki: 7.2 nM

SMILES: Cc1ncc(C(=O)NC2(C(=O)NCc3ccc(Nc4ccccc4C(F)(F)F)cc3F)CC2)cn1 [(294)]
- Ki: 1.2 nM

SMILES: CN(C)c1cc(C(=O)NC2(C(=O)NCc3ccc(Nc4ccc(F)cc4C(F)(F)F)cn3)CC2)cnn1 [(252)]
- Ki: 120 nM

SMILES: O=C(NC1(C(=O)NCc2ccc(Nc3ccc(Cl)cc3C(F)(F)F)cn2)CC1)c1cncc(Cl)c1 [(352)]
- Ki: 59 nM

SMILES: Cc1ncc(C(=O)N[C@@]2(C(=O)NCc3ccc(Nc4ccc(F)cc4C(F)(F)F)cn3)CCOC2)cn1 [(307)]
- Ki: 54 nM

SMILES: Cc1ccc(C(=O)N[C@@]2(C(=O)NCc3ccc(Nc4ccccc4C(F)(F)F)cc3)CCOC2)cn1 [(58)]
- inhibition at 10 µM: 109%

SMILES: O=C(NC1(C(=O)NCc2ccc(Nc3ccc(Cl)cc3C(F)(F)F)cn2)CC1)c1ccnc(F)c1 [(355)]
- Ki: 433 nM

SMILES: Nc1cncc(C(=O)N[C@@]2(C(=O)NCc3ncc(Nc4ccccc4C(F)(F)F)cc3F)CCOC2)c1 [(320)]
- Ki: 19 nM
